The values below come from patent publication US11149071B2, “Fusion protein Slit2D2(C386S)-HSA and use thereof in prevention and/or treatment of lung inflammation” (Asclepius (Suzhou) Technology Company Group Co., Ltd., priority 2017, dated 2021).

The test system of one test is mouse models of asthma. Put plainly: mouse models of asthma (ovalbumin sensitization and aerosol challenge); BALF cell counts, Penh, BALF cytokines. It counts as in vivo, BALB/c mice. As for the experimental part:
On the first day and the 14th day of the experiment, the asthma models were sensitized by intraperitoneal injection, and the asthma group was given sensitization solution containing 20 μg of ovalbumin and 2 mg of alum suspension each time.
3.3.2 On the days 28, 29 and 30, the mice of 2-4 groups were stimulated with aerosol, which included dissolving 100 mg OVA in 10 ml PBS and adding 5 μl Triton X-100, and atomized by atomizing inhalation facility (Buxco) for 30 minutes, and then the nebulizer was turned off. Finally, the mice were kept in the inhalation box for additional 7 minutes, and following by being taken out. The negative control mice were exposed in aerosolized PBS for 30 minutes.
Group 1 (PBS control group) were injected intraperitoneally with PBS at 2 hours before PBS sensitization on the days 28, 29 and 30. Group 2 (OVA control group) were injected intraperitoneally with PBS at 2 hours before OVA sensitization on the days 28, 29 and 30. Group 3 were injected intraperitoneally with ZD018 at 2 hours before OVA sensitization on the days 28, 29 and 30. Group 4 were intragastrically administrated with dexamethasone at 2 hours before OVA sensitization on the days 28, 29 and 30.
On the 31st (24 hours after the last challenge), the Penh of mice were detected with a Buxco mouse non-invasive pulmonary function instrument. The change of Penh was determined after atomization stimulating of 300 μl doubling concentration of methacholine (Mch). The stimulating concentrations from low to high were 0, 0.78, 1.56, 3.125, 6.25, 12.5, 25 and 50 g/L, respectively. The mean value of Penh was recorded at each stimulating concentration level of Mch. The Penh value at each stimulating concentration of Mch was converted to a percentage of the Penh value at the time of the stimulating normal saline (The Penh value stimulated by Mch/The Penh value stimulated by normal saline, 100%), and represented by penh %, which was used as an evaluation index for mice airway response.
3.5 The observation of airway inflammation: the cytological examination of bronchoalveolar lavage and bronchoalveolar lavage fluid (BALF).
3.6 IL-13 and IL-5 cytokine levels in bronchoalveolar lavage fluid (BALF) were tested with Elisa Kit (R&D, USA).

The test system of test [1] is lipopolysaccharide-induced lung injury. In words: rat model of acute lung injury induced by airway infusion of LPS; differential cell counts in BALF. It counts as in vivo, Wistar rat. The method, then: Acute lung injury (ALI) is a systemic uncontrolled inflammatory response caused by various direct and indirect injury factors, accompanied by alveolar epithelial cells and capillary endothelial cell injury, its pathogenesis is still unclear, and there is still no effective treatment means. A rat model with airway infusion of lipopolysaccharide (LPS) is a commonly used animal model. In this study, airway infusion of LPS induced acute lung injury in rats. The animals were injected compounds via tail vein. After four hours, lung lavage and bronchoalveolar lavage fluid were collected, and differential cell were counts and measured to represent the efficacy of test compounds in preventing lipopolysaccharide-induced lung injury.
Except for group 1, all other groups were received pulmonary perfusion of lipopolysaccharide. Animals were anesthetized by 3-5% isoflurane, and 100 μl of LPS solution (1 mg/ml) was introduced into rat trachea with a micro-atomizer intubation, and after 4 hours, the animals were killed with chloral hydrate (750 mg/kg). The lungs were gently perfused three times in situ with 4 ml of PBS+1% albumin. After lavage, bronchoalveolar lavage fluid (BALF) was preserved in ice, and then the number of eosinophils (EOS), macrophages (Mac), neutrophils (Neu), lymphocytes (Lym) and the total number of cells were measured.

The mark [2] stands for this setting: ZD018 1 mg/kg i.p. 2 hours before OVA challenge on days 28, 29 and 30 (FIG. 6).
Where [3] appears, read: test doses of 5 mg/kg, 1 mg/kg and 0.2 mg/kg i.v. 3 hours before LPS perfusion, BALF 4 hours after LPS, compared with the model group (FIG. 4).

“Slit2D2(C386S)-HSA: recombinant fusion protein of Slit2 D2 domain (cysteine at position 386 mutated to serine) and HSA, SEQ ID NO: 2”: in the test with mouse models of asthma (ZD018 1 mg/kg i.p. 2 hours before OVA challenge on days 28, 29 and 30 (FIG. 5)), the “accumulation of eosinophils in alveolar fluid (BALF)” value is reported as “significantly inhibit”. In the test with mouse models of asthma (setting [2]), the “accumulation of lymphocytes in alveolar fluid (BALF)” value was “inhibit” and the “accumulation of neutrophils in alveolar fluid (BALF)” value is recorded as “inhibit”. Besides, the “IL-5 cytokine level in bronchoalveolar lavage fluid (BALF)” value in the test with mouse models of asthma (ZD018 1 mg/kg i.p., Elisa Kit (FIG. 8)) is listed as “inhibit”. Also, the “IL-13 cytokine level in bronchoalveolar lavage fluid (BALF)” value in the test on mouse models of asthma (ZD018 1 mg/kg i.p., Elisa Kit (FIG. 9)) is reported as “inhibit”. In the test with mouse models of asthma (ZD018 1 mg/kg i.p., day 31, 24 hours after the last challenge, Mch 0-50 g/L, compared with control group G2 (FIG. 7)), the “enhanced pause (Penh) index stimulated by methacholine (Mch)” value is “effectively inhibit”. The “efficacy compared with Slit2D2-HSA recombinant protein” value in test [1] (both at 5 mg/kg dose i.v. 3 hours before LPS perfusion (FIG. 4)) is “superior to Slit2D2-HSA recombinant protein”. Further, in test [1] (setting [3]), the “increase of cell number (total number of cells in BALF)” value is recorded as “significantly inhibited” and the “number of neutrophils in bronchoalveolar lavage fluid” value is “significantly controlled”.
